Results taken from ChEMBL document CHEMBL1201862, “PubChem BioAssay data set” (2004).
Active and inactive are the calls of the source.

Tests used:
[1] = Vero cell cytotoxicity, dose response, cytotoxicity control for Vif-APOBEC3G degradation inhibitor project, Vero cells (AID 1117358); type: functional; settings: Human immunodeficiency virus 1, Vero
[2] = Luminescence Cell-Based Dose Response to Identify Activators of 5'UTR Stem-Loop Driven Prion Protein mRNA Translation in H4-C Neuroglioblastoma Cells. [Related pubchem assays: 1829 (Project Summary), 1814 (Primary HTS)]; type: functional
[3] = Luminescence Cell-Based Dose Confirmation to Identify Activators of 5'UTR Stem-Loop Driven Alpha-Synuclein mRNA Translation in H4 Neuroglioblastoma Cells. [Related pubchem assays: 1829 (Project Summary), 1814 (Primary HTS)]; type: functional
[4] = tested on: H4; experiment: Luminescence Cell-Based Dose Response HTS to Identify Activators of 5'UTR Stem-Loop Driven Prion Protein mRNA Translation in H4 Neuroglioblastoma Cells. [Related pubchem assays: 1829 (Project Summary), 1814 (Primary HTS)]; type: functional; settings: Homo sapiens
[5] = Luminescence Cell-Based Dose Response to Identify Activators of Luciferase Translation or Activity in H4-C Neuroglioblastoma Cells. [Related pubchem assays: 1829 (Project Summary), 1814 (Primary HTS)]; type: functional
[6] = Luminescence Cell-Based Dose Response HTS to Identify Activators of Luciferase Translation or Activity in H4 […] Cells. [Related pubchem assays: 1829 (Project Summary), 1814 (Primary HTS)]; type: functional
[7] = Luminescence Cell-Based Dose Confirmation HTS to Identify Activators of 5'UTR Stem-Loop Driven Alpha-Synuclein mRNA Translation in H4 Neuroglioblastoma Cells. [Related pubchem assays: 1829 (Project Summary), 1814 (Primary HTS)]; type: functional
[8] = molecular target: T1, Protein Tat (Human immunodeficiency virus type 1 group M subtype B (isolate HXB2)(HIV-1), UniProt P04608); type: functional;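 note: tat binding to TAR RNA read out by fluorescence polarization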
T1 sequence (P04608 whole entry): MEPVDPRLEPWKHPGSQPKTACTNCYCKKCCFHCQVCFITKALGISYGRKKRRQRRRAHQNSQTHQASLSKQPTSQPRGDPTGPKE

[9] = Luminescence-based dose response cell-based high throughput screening assay for cytotoxic compounds using the IEC-6 intestinal epithelial cell line. [Related pubchem assays: 1858 (Summary AID.), 1825 (Counterscreen.), 1907 (Confirmation screen.)]; type: functional
[10] = cytotoxicity in HEK-293T cells, dose response, cytotoxicity control for BCR NF-kB inhibitor project, luminescence, B-cell screen hits (AID 489021); type: functional, cell-based;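 note: HEK-293T cells carrying an NF-kB luciferase reporter; cells exposed to compound for about 14 hours before viability readout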
[11] = Luminescent dose response cell-based high throughput screening assay for inhibitors of the Janus kinase 2 mutant JAK2V617F. [Related pubchem assays: 1446 (Primary screen.), 1521 (Confirmation assay.), 1486 (Counter screen.)]; type: functional
[12] = molecular target: Paired box protein Pax-8 (Homo sapiens, UniProt Q06710); experiment: inhibitors of PAX8-driven TPO luciferase reporter, dose response, RMG-I cells, cherry-pick (AID 687027); type: functional, cell-based;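 note: luciferase reporter driven by Pax8 target thyroperoxidase promoter measured by SteadyGlo luminescence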
Paired box protein Pax-8, sequence (Q06710 whole entry): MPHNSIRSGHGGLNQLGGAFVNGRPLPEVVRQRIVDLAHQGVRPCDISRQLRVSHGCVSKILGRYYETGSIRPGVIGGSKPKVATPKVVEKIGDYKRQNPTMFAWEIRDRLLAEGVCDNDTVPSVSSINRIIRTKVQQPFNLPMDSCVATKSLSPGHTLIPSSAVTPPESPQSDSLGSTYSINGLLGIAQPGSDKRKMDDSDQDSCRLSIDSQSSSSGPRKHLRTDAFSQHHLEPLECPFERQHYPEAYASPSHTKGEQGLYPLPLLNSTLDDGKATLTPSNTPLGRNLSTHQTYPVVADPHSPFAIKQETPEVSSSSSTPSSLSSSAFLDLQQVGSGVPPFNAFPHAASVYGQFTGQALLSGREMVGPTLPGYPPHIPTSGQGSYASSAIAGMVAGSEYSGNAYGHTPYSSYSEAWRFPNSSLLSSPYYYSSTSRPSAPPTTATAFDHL

[13] = cytotoxicity in OVCAR8 ovarian cancer cells, dose response, PAX8 project, cell-based, plate reader, dry powder samples (AID 743197); type: functional; settings: OVCAR-8
[14] = inhibitors of PGC1a acetylation in cells, dose response, cell-based, cherry-picked samples (AID 720514); type: functional;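 note: potency may reflect raised or lowered acetylation signal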
[15] = IGROV1 ovarian cancer cell cytotoxicity, dose response, PAX8 inhibitor project, plate reader, dry powder samples (AID 743043); type: functional, cell-based; settings: IGROV-1
[16] = NIH:OVCAR-3 ovarian cancer cell cytotoxicity, dose response, PAX8 inhibitor project, plate reader, dry powder samples (AID 743044); type: functional, cell-based
[17] = IOSE-T80 ovarian epithelial cell cytotoxicity, dose response, cytotoxicity control for PAX8 inhibitor project, plate reader, dry powder samples (AID 743045); type: functional, cell-based
[18] = molecular target: Large T antigen (Simian virus 40, UniProt P03070); type: functional, Betapolyomavirus macacae;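 note: Confirmatory-stage PubChem screen for compounds that inhibit SV40 T antigen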
Large T antigen, sequence (P03070 whole entry): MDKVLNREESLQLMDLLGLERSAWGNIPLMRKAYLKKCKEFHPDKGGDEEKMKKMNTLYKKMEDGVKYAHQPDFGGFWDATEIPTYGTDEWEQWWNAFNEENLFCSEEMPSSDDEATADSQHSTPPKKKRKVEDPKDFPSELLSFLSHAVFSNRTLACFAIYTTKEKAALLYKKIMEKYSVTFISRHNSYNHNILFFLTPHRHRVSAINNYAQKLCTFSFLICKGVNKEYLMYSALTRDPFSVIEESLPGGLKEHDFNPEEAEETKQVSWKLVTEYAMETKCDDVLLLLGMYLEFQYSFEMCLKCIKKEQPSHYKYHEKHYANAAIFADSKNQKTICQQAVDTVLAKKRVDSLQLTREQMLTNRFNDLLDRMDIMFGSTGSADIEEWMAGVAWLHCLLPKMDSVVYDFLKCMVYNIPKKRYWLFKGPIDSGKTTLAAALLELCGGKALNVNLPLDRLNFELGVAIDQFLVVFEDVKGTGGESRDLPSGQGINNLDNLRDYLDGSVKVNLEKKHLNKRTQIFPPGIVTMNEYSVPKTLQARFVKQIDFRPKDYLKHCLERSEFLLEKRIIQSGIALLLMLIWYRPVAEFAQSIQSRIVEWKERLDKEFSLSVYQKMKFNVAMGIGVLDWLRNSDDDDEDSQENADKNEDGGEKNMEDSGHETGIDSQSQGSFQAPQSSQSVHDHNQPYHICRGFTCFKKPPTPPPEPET

[19] = molecular target: Estrogen receptor beta (Homo sapiens, UniProt Q92731);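 note: recombinant ER-beta bound to coactivator SRC1 peptide in presence of estradiol agonist; inhibitors block coactivator peptide binding and lower the FRET signal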
Estrogen receptor beta, sequence (Q92731 whole entry): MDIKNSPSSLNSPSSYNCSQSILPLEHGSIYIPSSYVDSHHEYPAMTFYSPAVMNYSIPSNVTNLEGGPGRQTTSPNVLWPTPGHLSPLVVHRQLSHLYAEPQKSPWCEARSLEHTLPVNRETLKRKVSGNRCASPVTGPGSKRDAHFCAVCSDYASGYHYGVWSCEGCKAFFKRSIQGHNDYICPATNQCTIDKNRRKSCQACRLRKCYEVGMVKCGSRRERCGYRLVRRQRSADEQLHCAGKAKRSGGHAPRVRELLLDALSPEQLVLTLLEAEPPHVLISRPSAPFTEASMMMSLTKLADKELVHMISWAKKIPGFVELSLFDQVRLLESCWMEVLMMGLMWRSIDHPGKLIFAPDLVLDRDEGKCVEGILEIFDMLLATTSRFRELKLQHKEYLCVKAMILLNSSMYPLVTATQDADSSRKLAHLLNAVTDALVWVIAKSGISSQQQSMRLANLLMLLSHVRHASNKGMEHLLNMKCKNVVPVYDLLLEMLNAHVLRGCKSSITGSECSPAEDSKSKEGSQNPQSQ

[20] = molecular target: Heat shock protein HSP 90-alpha (Homo sapiens, UniProt P07900); experiment: Luminescence-based dose response biochemical high throughput screening assay for inhibitors of the Heat Shock Protein 90 (HSP90). [Related pubchem assays: 1831 (Summary AID.), 1846 (Confirmation screen.), 1789 (Primary screen.)]

Cc1noc(C)c1COC(=O)c1cccc(S(=O)(=O)N2CCCCCC2)c1
CC50 [1]: > 40000 nM (active)

CC(C)(C)c1ccc(C(=O)CSc2nc[nH]n2)cc1
EC50 [2]: 1130 nM (active) | EC50 [3]: 580 nM (active) | EC50 [4]: 127 nM (active) | EC50 [5]: 1090 nM (active) | EC50 [6]: 88100 nM (active) | EC50 [7]: 3340 nM (active)

CC(C)c1ccc(/C=C/C(=O)N2CCc3ccccc3C2)cc1
CC50 [1]: > 40000 nM (active)

COc1ccc(OC)c(C2C(C(=O)Nc3ccc(F)cc3)=C(C)Nc3nc(CCCO)nn32)c1 (centres undefined)
IC50 [8]: > 100000 nM (active)

Cc1nn(Cc2ccccc2)c(Cl)c1C(=O)NCCc1ccccc1
EC50 [2]: 1070 nM (active) | EC50 [3]: 240 nM (active) | EC50 [5]: 367 nM (active) | EC50 [6]: < 100 nM (active) | EC50 [7]: < 100 nM (active)

Cc1ccc(Nc2nc(N3CCOCC3)nc(N3CCOCC3)n2)cc1C
IC50 [9]: 1470 nM (active) | IC50 [10]: > 80000 nM (inactive)

C#CCSc1nsc(SCC#C)c1C#N
IC50 [11]: 1100 nM (active)

O=C(Nc1ccc(C(F)(F)F)cc1)N1C[C@@H]2N[C@H](C1)[C@H]2c1ccc(-c2ccccc2)cc1
AC50 [12]: 8550 nM (active) | AC50 [13]: 41000 nM (active) | AC50 [14]: 5120 nM (active) | AC50 [15]: 27200 nM (active) | AC50 [16]: 17700 nM (active) | AC50 [17]: 49800 nM (active)

COc1ccc(C(=O)Nc2cnc3ccccn3c2=O)cc1
EC50 [2]: 755 nM (active) | EC50 [3]: 360 nM (active) | EC50 [4]: 38800 nM (active) | EC50 [5]: 530 nM (active) | EC50 [6]: < 100 nM (active) | EC50 [7]: 129 nM (active)

O=S(=O)(c1cccs1)N1CCN(c2ccc(O)cc2)CC1
IC50 [18]: 6660 nM (active) | IC50 [11]: 2840 nM (active)

Cc1occc1C(=O)NCCCc1ccccc1
IC50 [19]: > 50000 nM (not active)

Cc1ccc[n+](-c2[n-]c(=O)sc2C=NNC(=O)c2ccccc2O)c1
CC50 [1]: > 40000 nM (active)

COC(=O)c1ccccc1OCCCOc1ccc(C)cc1OC
IC50 [20]: 4.05 nM (active)
